According to ChEMBL document CHEMBL1201862, “PubChem BioAssay data set” (2004):
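Growth conditions: 96-well plates. Treatment: test compound, 48 hours, 5 concentrations. Analysis: linear interpolation between bracketing concentrations; unreached endpoints set to highest concentration. GI50: concentration for 50% inhibition of growth.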 Active and inactive are the calls of the source. Cut-off read from the data, not from the text of the source: active = GI50 up to about 1.1 µM and inactive = higher.

Assays:
Assay in all cases: NCI tumour cell line growth inhibition, 48 h
[1] = tested on: U-251
[2] = tested on: A498
[3] = tested on: SN12C
[4] = tested on: SF-539
[5] = tested on: NCI-H460
[6] = tested on: MOLT-4
[7] = tested on: 786-0
[8] = tested on: SK-MEL-28
[9] = tested on: NCI-H226
[10] = tested on: KM12
[11] = tested on: M14
[12] = tested on: HT-29
[13] = tested on: OVCAR-4
[14] = tested on: MDA-MB-231
[15] = tested on: NCI-H23
[16] = tested on: HCC 2998
[17] = tested on: Hs-578T
[18] = tested on: SNB-19
[19] = tested on: Malme-3M
[20] = tested on: IGROV-1
[21] = tested on: PC-3
[22] = tested on: SR
[23] = tested on: SF-295
[24] = tested on: OVCAR-5
[25] = tested on: SW-620
[26] = tested on: SK-MEL-5
[27] = tested on: HL-60
[28] = tested on: A549
[29] = tested on: UACC-257
[30] = tested on: HOP-92
[31] = tested on: NCI/ADR-RES
[32] = tested on: RXF 393
[33] = tested on: LOX IMVI
[34] = tested on: MDA-MB-435
[35] = tested on: SK-MEL-2
[36] = tested on: DU-145
[37] = tested on: HCT-116
[38] = tested on: SF-268
[39] = tested on: EKVX
[40] = tested on: MDA-N
[41] = tested on: HOP-62
[42] = tested on: UO-31
[43] = tested on: NCI-H522
[44] = tested on: OVCAR-3
[45] = tested on: SNB-75
[46] = tested on: MCF7
[47] = tested on: TK-10
[48] = tested on: UACC-62
[49] = tested on: CAKI-1
[50] = tested on: CCRF-CEM
[51] = tested on: BT-549
[52] = tested on: K562
[53] = tested on: COLO 205
[54] = tested on: HCT-15
[55] = tested on: ACHN
[56] = tested on: OVCAR-8
[57] = tested on: SK-OV-3
[58] = tested on: RPMI-8226
[59] = tested on: T47D

COc1c(C)c(OC)c2c(c1O)[C@@H]1[C@@H]3Cc4c(OC)c(C)c(OC)c(O)c4[C@H](CNC(=O)c4cnc5ccccc5n4)N3[C@@H](C#N)[C@H](C2)N1C
GI50 [1]: 1.35 nM (active)
GI50 [2]: 2.32 nM (active)
GI50 [3]: 3.29 nM (active)
GI50 [4]: 0.873 nM (active)
GI50 [5]: 4 nM (active)
GI50 [6]: 0.689 nM (active)
GI50 [7]: 4.12 nM (active)
GI50 [8]: 2.9 nM (active)
GI50 [9]: 2.46 nM (active)
GI50 [10]: 1.49 nM (active)
GI50 [11]: 2.21 nM (active)
GI50 [12]: 2.06 nM (active)
GI50 [13]: 2 nM (active)
GI50 [14]: 3.26 nM (active)
GI50 [15]: 2.77 nM (active)
GI50 [16]: 3.27 nM (active)
GI50 [17]: 1.34 nM (active)
GI50 [18]: 3.85 nM (active)
GI50 [19]: 1.3 nM (active)
GI50 [20]: 1.4 nM (active)
GI50 [21]: 4.33 nM (active)
GI50 [22]: 0.182 nM (active)
GI50 [23]: 2.96 nM (active)
GI50 [24]: 3.37 nM (active)
GI50 [25]: 2 nM (active)
GI50 [26]: 2.54 nM (active)
GI50 [27]: 1.53 nM (active)
GI50 [28]: 29.2 nM (active)
GI50 [29]: 2.96 nM (active)
GI50 [30]: 1.36 nM (active)
GI50 [31]: > 64.3 nM (active)
GI50 [32]: 3.41 nM (active)
GI50 [33]: 1.08 nM (active)
GI50 [34]: 2.55 nM (active)
GI50 [35]: 1.83 nM (active)
GI50 [36]: 2.6 nM (active)
GI50 [37]: 2.22 nM (active)
GI50 [38]: 3.54 nM (active)
GI50 [39]: 1.49 nM (active)
GI50 [40]: 1.38 nM (active)
GI50 [41]: 4.29 nM (active)
GI50 [42]: 6.4 nM (active)
GI50 [43]: 0.399 nM (active)
GI50 [44]: 2.14 nM (active)
GI50 [45]: 2.66 nM (active)
GI50 [46]: 1.35 nM (active)
GI50 [47]: 7.71 nM (active)
GI50 [48]: 1.23 nM (active)
GI50 [49]: 5.36 nM (active)
GI50 [50]: 0.798 nM (active)
GI50 [51]: 1.32 nM (active)
GI50 [52]: 0.977 nM (active)
GI50 [53]: 1.19 nM (active)
GI50 [54]: 8.26 nM
GI50 [55]: 3.48 nM (active)
GI50 [56]: 2.83 nM (active)
GI50 [57]: 12.5 nM (active)
GI50 [58]: 0.634 nM (active)
GI50 [59]: 0.522 nM (active)

N#CC(c1ccnc(Cl)n1)c1nc2ccccc2s1 (stereo not drawn)
GI50 [1]: 3380 nM (inactive)
GI50 [2]: 15800 nM (inactive)
GI50 [3]: 2870 nM (inactive)
GI50 [4]: 3880 nM (inactive)
GI50 [5]: 3610 nM (inactive)
GI50 [6]: 3550 nM (inactive)
GI50 [7]: 3780 nM (inactive)
GI50 [8]: 10800 nM (inactive)
GI50 [9]: 3760 nM (inactive)
GI50 [10]: 4370 nM (inactive)
GI50 [11]: 3760 nM (inactive)
GI50 [12]: 2880 nM (inactive)
GI50 [13]: 6900 nM (inactive)
GI50 [14]: 2910 nM (inactive)
GI50 [15]: 2480 nM (inactive)
GI50 [16]: 25400 nM (inactive)
GI50 [17]: 7740 nM (inactive)
GI50 [18]: 4350 nM (inactive)
GI50 [19]: 2700 nM (inactive)
GI50 [20]: 3650 nM (inactive)
GI50 [21]: 3780 nM (inactive)
GI50 [22]: 3030 nM (inactive)
GI50 [23]: 8490 nM (inactive)
GI50 [24]: 9530 nM (inactive)
GI50 [25]: 4300 nM (inactive)
GI50 [26]: 1330 nM (inactive)
GI50 [27]: 1170 nM (inactive)
GI50 [28]: 8590 nM (inactive)
GI50 [29]: 6190 nM (inactive)
GI50 [30]: 2770 nM (inactive)
GI50 [31]: 2670 nM (inactive)
GI50 [32]: 4440 nM (inactive)
GI50 [33]: 3550 nM (inactive)
GI50 [34]: 3920 nM (inactive)
GI50 [35]: 3520 nM (inactive)
GI50 [36]: 19600 nM (inactive)
GI50 [37]: 2580 nM (inactive)
GI50 [38]: 4980 nM (inactive)
GI50 [39]: 20200 nM (inactive)
GI50 [40]: 3380 nM (inactive)
GI50 [41]: 18700 nM (inactive)
GI50 [42]: 4070 nM (inactive)
GI50 [43]: 1600 nM (inactive)
GI50 [44]: 5550 nM (inactive)
GI50 [45]: 2360 nM (inactive)
GI50 [46]: 3680 nM (inactive)
GI50 [47]: 7330 nM (inactive)
GI50 [48]: 3210 nM (inactive)
GI50 [49]: 3870 nM (inactive)
GI50 [50]: 63 nM (active)
GI50 [51]: 3290 nM (inactive)
GI50 [52]: 2000 nM (inactive)
GI50 [53]: 10400 nM (inactive)
GI50 [54]: 3440 nM
GI50 [55]: 13700 nM (inactive)
GI50 [56]: 3780 nM (inactive)
GI50 [57]: 3210 nM (inactive)
GI50 [58]: 3540 nM (inactive)
GI50 [59]: 4190 nM (inactive)
